Usually Kd stands for the free concentration of one partner at which half of the binding sites on the other are occupied at equilibrium, for simple one-to-one binding.

Among the data in paper PMC5347771 (Oncotarget, 2016) are Kd values, retold here.

The target of assay [1] is T1, TYRO-3 (Homo sapiens, UniProt Q06418).
T1 construct: gene TYRO3
T1 sequence (Q06418 41-890): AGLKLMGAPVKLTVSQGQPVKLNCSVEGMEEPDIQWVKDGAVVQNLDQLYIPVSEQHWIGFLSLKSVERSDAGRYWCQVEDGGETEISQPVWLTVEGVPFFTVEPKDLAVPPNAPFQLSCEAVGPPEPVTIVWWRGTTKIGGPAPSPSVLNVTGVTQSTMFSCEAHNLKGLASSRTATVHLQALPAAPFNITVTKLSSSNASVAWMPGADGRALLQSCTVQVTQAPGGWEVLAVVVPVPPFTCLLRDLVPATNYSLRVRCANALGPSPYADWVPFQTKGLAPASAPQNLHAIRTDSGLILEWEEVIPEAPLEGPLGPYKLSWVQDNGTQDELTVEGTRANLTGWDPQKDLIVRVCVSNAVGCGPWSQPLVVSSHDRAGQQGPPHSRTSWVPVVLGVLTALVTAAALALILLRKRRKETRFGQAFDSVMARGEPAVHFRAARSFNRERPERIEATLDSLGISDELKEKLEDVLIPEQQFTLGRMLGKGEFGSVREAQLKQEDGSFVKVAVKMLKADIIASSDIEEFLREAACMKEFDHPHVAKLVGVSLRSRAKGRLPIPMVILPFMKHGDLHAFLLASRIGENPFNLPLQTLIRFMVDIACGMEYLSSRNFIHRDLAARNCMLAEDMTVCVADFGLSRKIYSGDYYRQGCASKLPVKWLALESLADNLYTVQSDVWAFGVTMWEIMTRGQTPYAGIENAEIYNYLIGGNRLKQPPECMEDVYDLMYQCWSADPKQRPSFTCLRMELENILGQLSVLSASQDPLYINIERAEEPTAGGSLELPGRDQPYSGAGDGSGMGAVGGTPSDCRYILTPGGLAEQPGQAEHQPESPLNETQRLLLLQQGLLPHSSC
The assay can be described thus: KINOMEscan competition binding (DiscoveRx); enzyme IC50 […] also measured (Reaction Biology).

Assay [2] addresses T2, AXL (Homo sapiens, UniProt P30530).
T2 sequence (P30530 26-894): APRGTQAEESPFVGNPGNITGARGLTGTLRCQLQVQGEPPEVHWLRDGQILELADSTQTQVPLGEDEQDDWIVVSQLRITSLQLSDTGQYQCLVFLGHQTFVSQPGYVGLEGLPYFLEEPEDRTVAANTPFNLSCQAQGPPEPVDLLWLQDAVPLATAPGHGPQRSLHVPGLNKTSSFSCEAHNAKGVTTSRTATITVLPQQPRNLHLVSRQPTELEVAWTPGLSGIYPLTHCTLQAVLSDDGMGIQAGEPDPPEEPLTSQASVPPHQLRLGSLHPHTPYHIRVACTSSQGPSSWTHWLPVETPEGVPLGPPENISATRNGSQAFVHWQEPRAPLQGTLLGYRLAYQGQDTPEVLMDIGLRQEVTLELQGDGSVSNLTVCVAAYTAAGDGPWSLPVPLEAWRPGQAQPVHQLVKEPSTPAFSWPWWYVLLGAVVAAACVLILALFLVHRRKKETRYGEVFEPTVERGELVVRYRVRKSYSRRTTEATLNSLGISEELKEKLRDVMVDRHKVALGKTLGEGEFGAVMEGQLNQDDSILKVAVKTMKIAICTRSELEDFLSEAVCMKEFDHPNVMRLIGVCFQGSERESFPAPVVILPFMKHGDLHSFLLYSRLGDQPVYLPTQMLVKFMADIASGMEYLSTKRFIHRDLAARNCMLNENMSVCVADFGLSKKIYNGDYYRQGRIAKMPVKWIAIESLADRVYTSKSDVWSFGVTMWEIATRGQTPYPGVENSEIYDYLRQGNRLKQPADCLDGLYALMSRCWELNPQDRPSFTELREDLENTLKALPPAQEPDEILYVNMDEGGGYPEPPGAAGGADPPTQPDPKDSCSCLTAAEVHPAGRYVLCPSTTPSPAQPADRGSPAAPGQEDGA
The description is as above.

`NC(=O)Nc1cc(-c2cccc(F)c2)sc1C(=O)N[C@H]1CCCNC1` [DN10764, (S)-5-(3-fluorophenyl)-N-(piperidin-3-yl)-3-ureidothiophene-2-carboxamide]: the Kd in assay [1] worked out at 1050 nM; in assay [2], 26 nM.
